Results from patent publication US10093694B2, “Compounds for treating eye disorders or diseases” (Guangzhou KangRui Biological Pharmaceutical Technology Co, …, priority 2016, dated 2018).

Assays:
mouse eyes (cataract) = test: Cataract studies: mouse eyes treated with eye drop solution; format: in vivo; details: eye drop solution 100 μM, three times a day, 50 μl each time, 6 weeks, versus negative control
Protocol: FIGS. 16A and 16B show the result of mouse eyes treated with an eye drop solution containing Compound 1 at 100 μM concentration three times a day for 50 μl each time for 6 weeks.

mouse lenses (cataract) = test: Cataract studies: dissected mouse cataract lenses incubated with compound, scored for clarity; details: incubated with compound at the indicated concentrations for 4 hours at room temperature, PBS negative control showed no lens opacity change
Protocol: FIGS. 14A and 14B show cataract lenses that have been treated with Compound 1. FIG. 14A show mouse lenses (white) that were dissected from the eye and placed into phosphate buffered saline solution (PBS) overnight at 4° C. Cataract was visible in all lenses. The cataract lenses were incubated with Compound 1 at the indicated concentration for 4 hours at room temperature and then scored for clarity. […] The PBS solution served as negative control and there were no lens opacity change.
FIGS. 15A and 15B show cataract lenses that have been treated with Compound 2. FIG. 15A show mouse lenses (white) that were dissected from the eye and placed into phosphate buffered saline solution (PBS) overnight at 4° C. Cataract was visible in all lenses. The cataract lenses were incubated with Compound 2 at the indicated concentration for 4 hours at room temperature and then scored for clarity. […] The PBS solution served as negative control and there were no lens opacity change.

| Compound | clarity / cataract of treated eye (mouse eyes (cataract)) | lens clarity / cataract after treatment (mouse lenses (cataract)) |
| --- | --- | --- |
| C[C@H](CCC(Br)C(C)(C)O)[C@H]1CC[C@@]2(C)C3=C(CC[C@]12C)[C@@]1(C)CC[C@H](O)C(C)(C)[C@@H]1CC3 (stereo partly drawn) [Compound 1, (3S,5R,10S,13R,14R,17R)-17-((2R)-5-bromo-6-hydroxy-6-methylheptan-2-yl)-4,4,10,13,14-pentamethyl-2,3,4,5,6,7,10,11,12,13,14,15,16,17-tetradecahydro-1H-cyclopenta[a]phenanthren-3-ol] | increased clarity and reduced cataract | Increased lens clarity and reduced cataract |
| C[C@H](CCCC(C)(C)O)[C@H]1CC[C@@]2(C)C3=C(CC[C@]12C)[C@@]1(C)CC[C@H](O)C(C)(C)[C@@H]1CC3 [Compound 2, (3S,5R,10S,13R,14R,17R)-17-((R)-6-hydroxy-6-methylheptan-2-yl)-4,4,10,13,14-pentamethyl-2,3,4,5,6,7,10,11,12,13,14,15,16,17-tetradecahydro-1H-cyclopenta[a]phenanthren-3-ol] | – | Increased lens clarity and reduced cataract |
